Earlier results in article PMC9405123, “Design, Synthesis and Mechanistic Studies of Novel Isatin-Pyrazole Hydrazone Conjugates as Selective and Potent Bacterial MetAP Inhibitors” (Antibiotics, 2022).
Values after ≈ are worked out from the molar mass of the structure shown.

Test system: Staphylococcus aureus
Conditions: cited from earlier work

Structure (SMILES): O=C1Nc2ccc(Cl)cc2/C1=N/NC(=O)c1ccc(N2C(=O)/C(=C\c3ccccc3)N=C2c2ccccc2)cc1 [B]
- MIC: 12 µg/mL (≈ 22 µM)

Structure (SMILES): COc1ccc([C@]2(C)[C@@H](Cl)C(=O)N2NC(=O)c2cc(-c3ccc(Cl)cc3)n[nH]2)cc1 [C]
- MIC: 0.0025 µg/mL (≈ 0.00561 µM)

Structure (SMILES): Cn1nc(C(=O)NC(=O)Nc2ccccc2)c(C(=O)c2ccccc2)c1-c1ccccc1 [D]
- MIC: 310 µg/mL (≈ 730 µM)
